Patent US10399949B2, “NK1 receptor antagonist” (KISSEI PHARMACEUTICAL CO., LTD., priority 2015, dated 2019)

Target: T1, human NK1 receptor (Homo sapiens, UniProt P25103)
T1 construct: expressed in transfected cells; host or cells: 293T cells (RIKEN), transient transfection with pcDNA3.1(-) plasmid
Assay: Affinity for human NK1 receptor (125I-substance P receptor binding test, membrane fraction)
Conditions: membrane fraction of human NK1 receptor-expressing 293T cells, room temperature 60 minutes, read-out: pIC50 (inverse logarithm of the concentration required for 50% inhibition of 125I-substance P binding) (converted)
Description: Affinity for Human NK1 Receptor
(3) Measurement of Binding Affinity to Human NK1 Receptor
(3-1) Preparation of Membrane Fraction from Human NK1 Receptor-Expressing Cells
Human NK1 receptor-expressing cells were prepared in a 175 cm^2 culture flask (Nippon Becton Dickinson). The formation of a complex of the human NK1 receptor expression plasmid and Lipofectamine 2000 was performed by calculating the culture area ratio and increasing the scale of the method described in the above 2-4 by the ratio. The human NK1 receptor-expressing cells were collected in a buffer solution for the membrane fraction preparation (50 mM Tris (Wako Pure Chemical), 120 mM sodium chloride (Wako Pure Chemical Industries), 5 mM potassium chloride (Wako Pure Chemical Industries), 1 mM ethylenediaminetetraacetic acid (Sigma), 0.002 mg/mL chymostatin (Peptide Institute), 0.04 mg/bacitracin (Wako Pure Chemical Industries), 0.005 mg/mL phosphoramidon (Peptide Institute) and 0.5 mM phenylmethylsulfonyl fluoride (Wako Pure Chemical Industries), pH7.4) and centrifuged at 1,880 g for 10 minutes, and the cell sediment was suspended in the buffer solution for the membrane fraction preparation. After freezing and thawing the cells once, the cells were homogenized using a Dounce-type homogenizer (cooled on ice, 1000 rpm, 20 times). The homogenized cell suspension was centrifuged at 20,000 rpm for 10 minutes, and the supernatant was removed to obtain cell sediment. The cell sediment was suspended again in the buffer solution for the membrane fraction preparation and homogenized using a Dounce-type homogenizer (cooled on ice, 1000 rpm, 30 times). The cell suspension was centrifuged at 20,000 rpm for 10 minutes, and the supernatant was removed to obtain cell sediment. The same homogenization and centrifugation were repeated again, and final cell sediment was obtained. The final cell sediment was suspended in a buffer solution for the receptor binding test (50 mM Tris (Wako Pure Chemical Industries), 3 mM manganese chloride (Wako Pure Chemical Industries), 0.002 mg/mL chymostatin (Peptide Institute), 0.04 mg/bacitracin (Wako Pure Chemical Industries) and 0.02% bovine serum albumin (Sigma), pH 7.4), and the protein concentration was measured using BCA Protein Assay Kit (Pierce).
(3-2) Receptor Binding Test
The buffer solution for the receptor binding test was dispensed to the wells of a 96-well assay plate (Greiner) at 22.5 μL/well. DMSO solutions of a test compound, which were prepared at an 80-time higher concentration using 100% dimethyl sulfoxide (DMSO), were added to the wells at 2.5 μL/well (final concentrations of 1 nM to 100 nM), and the solutions were mixed. As a radiolabeled ligand, ^125I-substance P (Substance P, [^125I]Tyr^8-, PerkinElmer) was used. ^125I-substance P was diluted with the buffer solution for the receptor binding test to a concentration resulting in […] and added to the 96-well assay plate, and the solutions were mixed. The membrane fraction prepared from the human NK1 receptor-expressing cells was diluted with the buffer solution for the receptor binding test to a concentration resulting in 8 to 10 μg/well, suspended until the suspension became in such a homogenous state that the suspension could flow through a 27G injection needle smoothly and then added to the 96-well assay plate at 150 μL/well. Then, the plate was incubated at room temperature for 60 minutes while shaking the plate. […]

T1 sequence (P25103 whole entry): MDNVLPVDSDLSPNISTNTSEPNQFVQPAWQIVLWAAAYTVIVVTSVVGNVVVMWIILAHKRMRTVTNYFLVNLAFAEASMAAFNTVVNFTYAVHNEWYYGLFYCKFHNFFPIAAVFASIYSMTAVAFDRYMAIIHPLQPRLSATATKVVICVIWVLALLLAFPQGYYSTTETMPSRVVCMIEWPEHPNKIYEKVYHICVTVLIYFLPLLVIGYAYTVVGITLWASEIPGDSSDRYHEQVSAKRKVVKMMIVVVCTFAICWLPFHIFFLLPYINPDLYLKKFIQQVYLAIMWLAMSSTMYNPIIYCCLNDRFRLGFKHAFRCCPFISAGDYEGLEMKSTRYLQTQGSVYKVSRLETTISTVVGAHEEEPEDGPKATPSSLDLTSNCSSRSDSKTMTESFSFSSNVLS

Row | SMILES | IC50
1 | Cc1cc(F)ccc1[C@H]1CN(C[C@H]2CC[C@@H](CC(=O)O)CC2)CCN1C(=O)N(C)[C@H](C)c1cc(C(F)(F)F)cc(C(F)(F)F)c1 [Example 4, cis-{4-[(S)-4-{[(R)-1-(3,5-Bistrifluoromethylphenyl)ethyl]methylcarbamoyl}-3-(4-fluoro-2-methylphenyl)piperazin-1-ylmethyl]cyclohexyl}acetic acid] | 0.851 nM
2 | Cc1cc(F)ccc1[C@H]1CN(C[C@H]2CC[C@H](CC(=O)O)CC2)CCN1C(=O)N(C)[C@H](C)c1cc(C(F)(F)F)cc(C(F)(F)F)c1 [Example 5, trans-{4-[(S)-4-{[(R)-1-(3,5-Bistrifluoromethylphenyl)ethyl]methylcarbamoyl}-3-(4-fluoro-2-methylphenyl)piperazin-1-ylmethyl]cyclohexyl}acetic acid] | 0.851 nM
